From patent US9206156B2, “Substituted indole derivatives” (GRÜNENTHAL GMBH, priority 2008, dated 2015) come the findings set out here.

One assay addresses T1, human μ-opiate receptor (Homo sapiens, UniProt P35372).
T1 construct: purchased NEN, Zaventem, Belgium RB-HOM; host or cells: CHO-K1 cells (membrane preparation)
Put plainly: μ-opiate receptor binding assay with [3H] naloxone (WGA-SPA beads). The settings on record: 1 μmol/l test substance; 1 nmol/l [3H] naloxone; CHO-K1 cell membranes expressing human μ-opiate receptor. The method, boiled down:
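CHO-K1 membranes expressing human μ-opiate receptor incubated 90 min at room temperature with 1 nmol/l [3H]naloxone and WGA-SPA beads in 50 mmol/l Tris-HCl with 0.05% azide, 0.06% BSA. Non-specific binding with 25 μmol/l naloxone; % inhibition at 1 μmol/l, or IC50 converted to Ki via Cheng-Prusoff.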

A further assay addresses T2, ORL1 receptor (Homo sapiens, UniProt P41146).
T2 construct: expressed in transfected cells; host or cells: CHO (recombinant CHO-ORL1 cells), membranes
Put plainly: ORL1 receptor binding assay with 3H-nociceptin/orphanin FQ (WGA-SPA beads). The note with it: c=1 μM test substance; 0.5 nM 3H-nociceptin/orphanin FQ; membranes of recombinant CHO-ORL1 cells. In outline: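 Radioligand displacement on membranes from recombinant CHO-ORL1 cells, 0.5 nM 3H-nociceptin/orphanin FQ, 20 μg membrane protein per batch in 50 mM Hepes pH 7.4, 10 mM MgCl2, 1 mM EDTA. Incubated 1 h at room temperature with WGA-SPA beads, scintillation read. Reported as Ki (nM) or % inhibition at 1 μM.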

SMILES strings stand for the structures.

As a reminder, the inhibition is the share of the control response that was lost under treatment.

T2 sequence (P41146 whole entry): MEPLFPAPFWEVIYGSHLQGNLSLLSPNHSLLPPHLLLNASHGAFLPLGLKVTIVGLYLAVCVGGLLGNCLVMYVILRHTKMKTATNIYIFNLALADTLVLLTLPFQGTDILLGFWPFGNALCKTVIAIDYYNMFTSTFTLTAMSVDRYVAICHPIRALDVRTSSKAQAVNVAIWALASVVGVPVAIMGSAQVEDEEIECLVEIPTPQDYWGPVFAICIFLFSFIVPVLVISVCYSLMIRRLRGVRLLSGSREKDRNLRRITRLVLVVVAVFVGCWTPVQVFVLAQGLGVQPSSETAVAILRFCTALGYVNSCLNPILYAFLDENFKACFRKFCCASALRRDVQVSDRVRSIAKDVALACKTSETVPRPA
T1 sequence (P35372 whole entry): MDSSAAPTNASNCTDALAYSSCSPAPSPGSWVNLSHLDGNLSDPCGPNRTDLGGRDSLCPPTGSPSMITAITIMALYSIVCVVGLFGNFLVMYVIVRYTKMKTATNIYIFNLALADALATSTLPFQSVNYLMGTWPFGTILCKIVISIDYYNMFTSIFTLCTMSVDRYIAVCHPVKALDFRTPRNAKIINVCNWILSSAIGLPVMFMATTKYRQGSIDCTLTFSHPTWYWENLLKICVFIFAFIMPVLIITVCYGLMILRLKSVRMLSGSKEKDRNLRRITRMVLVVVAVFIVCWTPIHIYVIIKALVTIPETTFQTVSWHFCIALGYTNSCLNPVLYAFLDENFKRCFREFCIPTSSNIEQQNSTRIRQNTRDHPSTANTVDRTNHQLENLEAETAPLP

With `CN(C(=O)C1CCCc2c1[nH]c1ccc(Cl)cc21)C(C(=O)N1CCC(c2cccs2)(N(C)C)CC1)c1ccccc1` (stereo not drawn) [Example 134, 6-chloro-N-(2-(4-(dimethylamino)-4-(thiophen-2-yl)piperidin-1-yl)-2-oxo-1-phenylethyl)-N-methyl-2,3,4,9-tetrahydro-1H-carbazole-1-carboxamide], the inhibition at 1 µM stood at 34% on human μ-opiate receptor and 29% at ORL1 receptor.
For `CN(C)C1(c2cccs2)CCN(C(=O)CNC(=O)c2cccc3c2ccn3C)CC1` [Example 135, N-(2-(4-(dimethylamino)-4-(thiophen-2-yl)piperidin-1-yl)-2-oxoethyl)-1-methyl-1H-indole-4-carboxamide] the same measures were 61% and 27%.
Turning to `CN(C)c1ccc2cc(C(=O)N3CCCC(C(=O)N4CCC(c5ccccc5)(N(C)C)CC4)C3)[nH]c2c1` (stereo not drawn) [Example 136, (6-(dimethylamino)-1H-indol-2-yl)(3-(4-(dimethylamino)-4-phenylpiperidine-1-carbonyl)piperidin-1-yl)methanone], the inhibition at 1 µM was found to be 46% at human μ-opiate receptor and 24% at ORL1 receptor.
The corresponding values for `CCCCC1(N(C)C)CCN(CCN(C)Cc2c[nH]c3ccccc23)CC1` [Example 138, 1-(2-(((1H-indol-3-yl)methyl)(methyl)amino)ethyl)-4-butyl-N,N-dimethylpiperidin-4-amine] are 81% and 12%.
For `CN(C)C1(c2ccccc2)CCN(C(=O)CCNCc2c[nH]c3ccccc23)CC1` [Example 139, 3-((1H-indol-3-yl)methylamino)-1-(4-(dimethylamino)-4-phenylpiperidin-1-yl)propan-1-one] the same measures were 90% and 74%.
The corresponding values for `CN(CCN1CCC(c2ccccc2)(N2CCCC2)CC1)Cc1ccc2[nH]ccc2c1` [Example 140, N-((1H-indol-5-yl)methyl)-N-methyl-2-(4-phenyl-4-(pyrrolidin-1-yl)piperidin-1-yl)ethanamine] are 54% and 17%.
For `CN(C)C1(c2ccccc2)CCN(C(=O)CCNCc2ccc3[nH]ccc3c2)CC1` [Example 142, 3-((1H-indol-5-yl)methylamino)-1-(4-(dimethylamino)-4-phenylpiperidin-1-yl)propan-1-one], the inhibition at 1 µM at human μ-opiate receptor came to 78%; on ORL1 receptor it was 40%.
For `CN(CCN1CCC(c2ccccc2)(N2CCCC2)CC1)Cc1ccc2cc[nH]c2c1` [Example 143, N-((1H-indol-6-yl)methyl)-N-methyl-2-(4-phenyl-4-(pyrrolidin-1-yl)piperidin-1-yl)ethanamine] the same measures were 71% and 13%.
Consider `CCCCC1(N(C)C)CCN(CCN(C)Cc2ccc3cc[nH]c3c2)CC1` [Example 144, 1-(2-(((1H-indol-6-yl)methyl)(methy)amino)ethyl)-4-butyl-N,N-dimethylpiperidin-4-amine], for which, on human μ-opiate receptor, the “% Inhibition (μ) at 1 μM” value came to 90%. At ORL1 receptor, the “% Inhibition (ORL1) at 1 μM” value was 39%.
As for `CN(C)C1(c2ccccc2)CCN(C(=O)CCNCc2ccc3cc[nH]c3c2)CC1` [Example 145, 3-((1H-indol-6-yl)methylamino)-1-(4-(dimethylamino)-4-phenylpiperidin-1-yl)propan-1-one], the values for the inhibition at 1 µM on human μ-opiate receptor and on ORL1 receptor were 80% and 45%, respectively.
The corresponding values for `CC(C)C(C(=O)N1CCC(c2ccccc2)(N(C)C)CC1)N(C)Cc1ccc2[nH]ccc2c1` (stereo not drawn) [Example 146, 2-(((1H-indol-5-yl)methyl)(methyl)amino)-1-(4-(dimethylamino)-4-phenylpiperidin-1-yl)-3-methylbutan-1-one] are 53% and 24%.
For `CN(Cc1ccc2[nH]ccc2c1)C(C(=O)N1CCC(c2cccs2)(N(C)C)CC1)c1ccccc1` (stereo not drawn) [Example 147, 2-(((1H-indol-5-yl)methyl)(methyl)amino)-1-(4-(dimethylamino)-4-(thiophen-2-yl)piperidin-1-yl)-2-phenylethanone] the same measures were 47% and 27%.
For the compound `CN(C)C1(c2ccccc2)CCN(C(=O)C2CCCN(Cc3ccc4[nH]ccc4c3)C2)CC1` (stereo not drawn) [Example 148, (1-((1H-indol-5-yl)methyl)piperidin-3-yl)(4-(dimethylamino)-4-phenylpiperidin-1-yl)methanone], the inhibition at 1 µM stood at 41% at human μ-opiate receptor and 17% on ORL1 receptor.
For `CC(C)C(C(=O)N1CCC(c2ccccc2)(N(C)C)CC1)N(C)Cc1ccc2cc[nH]c2c1` (stereo not drawn) [Example 149, 2-(((1H-indol-6-yl)methyl)(methyl)amino)-1-(4-(dimethylamino)-4-phenylpiperidin-1-yl)-3-methylbutan-1-one] the same measures were 54% and 52%.
Regarding `CN(Cc1ccc2cc[nH]c2c1)C(C(=O)N1CCC(c2cccs2)(N(C)C)CC1)c1ccccc1` (stereo not drawn) [Example 150, 2-(((1H-indol-6-yl)methyl)(methyl)amino)-1-(4-(dimethylamino)-4-(thiophen-2-yl)pipendin-1-yl)-2-phenylethanone], the “% Inhibition (μ) at 1 μM” value on human μ-opiate receptor turned out to be 54%. The “% Inhibition (ORL1) at 1 μM” value at ORL1 receptor was 76%.
For the compound `CN(C)C1(c2ccccc2)CCN(C(=O)C2CCCN(Cc3c[nH]c4ccccc34)C2)CC1` (stereo not drawn) [Example 151, (1-((1H-indol-3-yl)methyl)piperidin-3-yl)(4-(dimethylamino)-4-phenylpiperidin-1-yl)methanone], the inhibition at 1 µM on human μ-opiate receptor was determined as 83%; on ORL1 receptor, 52%.
Consider `CN(C)C1(c2ccccc2)CCN(C(=O)C2CCCN(Cc3ccc4cc[nH]c4c3)C2)CC1` (stereo not drawn) [Example 152, (1-((1H-indol-6-yl)methyl)piperidin-3-yl)(4-(dimethylamino)-4-phenylpiperidin-1-yl)methanone], for which the results for the inhibition at 1 µM on human μ-opiate receptor and on ORL1 receptor were 93% and 80%, respectively.
For `CCCCC1(N(C)C)CCN(CCN(C)Cc2c[nH]c3ccc(Br)cc23)CC1` [Example 154, 1-(2-(((5-bromo-1H-indol-3-yl)methyl)(methyl)amino)ethyl)-4-butyl-N,N-dimethylpiperidin-4-amine] the same measures were 94% and 28%.
Regarding `CN(C)C1(c2ccccc2)CCN(C(=O)C2CCCN(Cc3c[nH]c4ccc(Br)cc34)C2)CC1` (stereo not drawn) [Example 155, (1-((5-bromo-1H-indol-3-yl)methyl)piperidin-3-yl)(4-(dimethylamino)-4-phenylpiperidin-1-yl) methanone], the inhibition at 1 µM on human μ-opiate receptor is 89%; at ORL1 receptor, 69%.
The corresponding values for `Cc1[nH]c2ccccc2c1CN1CCCC(C(=O)N2CCC(c3ccccc3)(N(C)C)CC2)C1` (stereo not drawn) [Example 156, (4-(dimethylamino)-4-phenylpiperidin-1-yl)(1-((2-methyl-1H-indol-3-yl)methyl)piperidin-3-yl) methanone] are 57% and 39%.
Take `CCCCC1(N(C)C)CCN(CCN(C)Cc2cccc3cc[nH]c23)CC1` [Example 157, 1-(2-(((1H-indol-7-yl)methyl)(methy)amino)ethyl)-4-butyl-N,N-dimethylpiperidin-4-amine]: the “% Inhibition (μ) at 1 μM” value on human μ-opiate receptor came to 96%. Moreover, on ORL1 receptor, the “% Inhibition (ORL1) at 1 μM” value was 30%.
As for `CN(C)C1(c2ccccc2)CCN(C(=O)C2CCCN(Cc3cccc4cc[nH]c34)C2)CC1` (stereo not drawn) [Example 158, (1-((1H-indol-7-yl)methyl)piperidin-3-yl)(4-(dimethylamino)-4-phenylpiperidin-1-yl)methanone], the inhibition at 1 µM at human μ-opiate receptor amounted to 93%; on ORL1 receptor it was 61%.
For `CN(C)C1(c2ccccc2)CCN(C(=O)C2CCCN(Cc3cccc4[nH]ccc34)C2)CC1` (stereo not drawn) [Example 161, (1-((1H-indol-4-yl)methyl)piperidin-3-yl)(4-(dimethylamino)-4-phenylpiperidin-1-yl)methanone] the same measures were 66% and 15%.
For `CN(C)C1(c2ccccc2)CCN(C(=O)CCNCc2c[nH]c3ccc(Br)cc23)CC1` [Example 162, 3-((5-bromo-1H-indol-3-yl)methylamino)-1-(4-(dimethylamino)-4-phenylpiperidin-1-yl)propan-1-one] the same measures were 80% and 63%.
`CN(C)C1(c2cccs2)CCN(C(=O)CC(NCc2c[nH]c3ccc(Br)cc23)c2ccccc2)CC1` (stereo not drawn) [Example 163, 3-((5-bromo-1H-indol-3-yl)methylamino)-1-(4-(dimethylamino)-4-(thiophen-2-yl)piperidin-1-yl)-3-phenylpropan-1-one]: the inhibition at 1 µM at human μ-opiate receptor worked out at 87%; at ORL1 receptor, 55%.
For `CN(C)C1(c2cccs2)CCN(C(=O)CC(NCc2c[nH]c3ccccc23)c2ccccc2)CC1` (stereo not drawn) [Example 164, 3-((1H-indol-3-yl)methylamino)-1-(4-(dimethylamino)-4-(thiophen-2-yl)piperidin-1-yl)-3-phenylpropan-1-one] the same measures were 96% and 82%.
The corresponding values for `CN(C)C1(c2cccs2)CCN(C(=O)CC(NCc2ccc3[nH]ccc3c2)c2ccccc2)CC1` (stereo not drawn) [Example 165, 3-((1H-indol-5-yl)methylamino)-1-(4-(dimethylamino)-4-(thiophen-2-yl)piperidin-1-yl)-3-phenylpropan-1-one] are 92% and 47%.
